Holding throughout (assay): biochemical
Common to all, as to type: biochemical

For assay [1], the target named is various β-lactamases (bacterial lysates) (Pseudomonas aeruginosa, UniProt P14489). The note with it: AZT IC50 KP1007 OXA-10.
Assay [2] has as its target various β-lactamases (bacterial lysates) (Escherichia coli, UniProt A0A5R8T042). The following applies: read-out: AZT IC50 KP1009 CTX-M-15.
In assay [3] the target is various β-lactamases (bacterial lysates) (Klebsiella pneumoniae, UniProt Q9F663). The following applies: aztreonam cleavage.
For assay [4], the target named is various β-lactamases (bacterial lysates) (Salmonella typhimurium, UniProt P0A1V8). The note with it: AZT IC50 KPX1001 OXA-2.
The target in assay [5] is various β-lactamases (bacterial lysates) (Klebsiella pneumoniae, UniProt Q9F663, H272Y).
Assay [6] concerns the target various β-lactamases (bacterial lysates) (Escherichia coli, UniProt A0A649V088). The note with it: read-out: AZT IC50 KP1005 CTX-M-14.
Setting [7] is: lysate KP1004 KPC-2, read-out: AZT IC50 KP1004 KPC-2 (converted).
[8] abbreviates: lysate KP1008 KPC-2, read-out: AZT IC50 KP1008 KPC-2.

Where two headings read alike, the source gives them in different places.

As usually defined, the IC50 is the point on the concentration scale where inhibition reaches its midpoint.

Chain of various β-lactamases (bacterial lysates) (Pseudomonas aeruginosa, UniProt P14489) (P14489 20-266): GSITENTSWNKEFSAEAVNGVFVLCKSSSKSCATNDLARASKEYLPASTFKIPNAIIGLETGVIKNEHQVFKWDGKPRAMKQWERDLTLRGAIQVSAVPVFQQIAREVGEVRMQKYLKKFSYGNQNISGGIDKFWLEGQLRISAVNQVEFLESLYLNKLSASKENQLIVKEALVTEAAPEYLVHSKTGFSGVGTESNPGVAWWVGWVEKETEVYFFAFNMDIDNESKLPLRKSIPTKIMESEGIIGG
Chain of various β-lactamases (bacterial lysates) (Salmonella typhimurium, UniProt P0A1V8) (P0A1V8 22-275): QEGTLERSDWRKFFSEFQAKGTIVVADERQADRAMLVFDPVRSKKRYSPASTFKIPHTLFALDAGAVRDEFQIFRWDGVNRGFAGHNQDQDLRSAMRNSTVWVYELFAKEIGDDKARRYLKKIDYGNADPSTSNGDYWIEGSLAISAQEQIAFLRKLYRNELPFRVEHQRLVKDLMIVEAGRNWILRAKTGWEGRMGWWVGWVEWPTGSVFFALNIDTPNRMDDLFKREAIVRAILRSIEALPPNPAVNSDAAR
Chain of various β-lactamases (bacterial lysates) (Klebsiella pneumoniae, UniProt Q9F663, H272Y) (Q9F663 whole entry H272Y, looked up): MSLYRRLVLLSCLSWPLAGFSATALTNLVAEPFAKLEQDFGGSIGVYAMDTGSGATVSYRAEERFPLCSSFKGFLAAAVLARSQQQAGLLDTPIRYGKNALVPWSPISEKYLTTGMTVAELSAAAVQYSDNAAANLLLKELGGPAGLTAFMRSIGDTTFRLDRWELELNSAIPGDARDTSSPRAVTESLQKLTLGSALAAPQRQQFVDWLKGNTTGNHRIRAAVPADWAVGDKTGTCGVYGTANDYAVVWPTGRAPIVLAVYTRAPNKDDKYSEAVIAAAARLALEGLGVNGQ
Chain of various β-lactamases (bacterial lysates) (Klebsiella pneumoniae, UniProt Q9F663) (Q9F663 whole entry, looked up): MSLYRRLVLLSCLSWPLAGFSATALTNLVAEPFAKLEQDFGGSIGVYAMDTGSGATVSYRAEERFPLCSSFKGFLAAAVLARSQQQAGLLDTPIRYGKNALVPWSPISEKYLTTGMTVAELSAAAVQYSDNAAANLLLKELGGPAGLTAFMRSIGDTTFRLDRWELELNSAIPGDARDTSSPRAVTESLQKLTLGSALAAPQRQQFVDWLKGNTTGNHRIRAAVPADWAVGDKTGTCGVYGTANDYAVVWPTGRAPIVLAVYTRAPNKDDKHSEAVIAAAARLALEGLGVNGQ
Chain of various β-lactamases (bacterial lysates) (Escherichia coli, UniProt A0A5R8T042) (A0A5R8T042 29-291): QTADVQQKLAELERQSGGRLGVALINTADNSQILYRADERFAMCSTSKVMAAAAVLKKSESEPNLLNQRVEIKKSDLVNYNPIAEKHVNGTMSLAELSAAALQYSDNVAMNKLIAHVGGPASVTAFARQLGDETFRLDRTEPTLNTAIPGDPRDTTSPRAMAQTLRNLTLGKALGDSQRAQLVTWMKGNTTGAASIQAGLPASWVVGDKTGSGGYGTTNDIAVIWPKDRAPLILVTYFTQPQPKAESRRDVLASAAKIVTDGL
Chain of various β-lactamases (bacterial lysates) (Escherichia coli, UniProt A0A649V088) (A0A649V088 29-291): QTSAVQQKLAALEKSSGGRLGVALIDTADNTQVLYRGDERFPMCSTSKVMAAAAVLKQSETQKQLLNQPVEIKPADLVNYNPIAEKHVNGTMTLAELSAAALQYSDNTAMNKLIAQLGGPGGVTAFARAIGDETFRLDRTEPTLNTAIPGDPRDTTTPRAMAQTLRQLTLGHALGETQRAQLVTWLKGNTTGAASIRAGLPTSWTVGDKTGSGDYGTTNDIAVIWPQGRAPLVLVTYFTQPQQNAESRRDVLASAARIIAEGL

Turning to `N[C@H](C(=O)N[C@H]1CC[C@@H](CC(=O)O)OB1O)c1ccccc1` [Compound 33, 2-((3R,6S)-3-((S)-2-amino-2-phenylacetamido)-2-hydroxy-1,2-oxaborinan-6-yl)acetic acid], the IC50 in assay [1] is more than 6.53 µM; in assay [2] it was more than 6.53 µM; in assay [3] (setting [7]), 1.63 to 6.53 µM; in assay [3] (setting [8]) it was 1.63 to 6.53 µM; in assay [4], 1.63 to 6.53 µM; in assay [5], less than 1.63 µM. Moreover, the IC50 in assay [6] is less than 1.63 µM.
`NCCC(=O)N[C@H]1CC[C@@H](CC(=O)O)OB1O` [Compound 34, 2-((3R,6S)-3-(3-aminopropanamido)-2-hydroxy-1,2-oxaborinan-6-yl)acetic acid]: the IC50 in assay [1] is more than 8.19 µM; in assay [2], more than 8.19 µM; in assay [3] (setting [7]), 2.05 to 8.19 µM; in assay [3] (setting [8]), 2.05 to 8.19 µM; in assay [4], more than 8.19 µM; in assay [5], less than 2.05 µM. The IC50 in assay [6] is more than 8.19 µM.
Regarding `N[C@@H](CCC(=O)N[C@H]1CC[C@@H](CC(=O)O)OB1O)C(=O)O` [Compound 35, (S)-2-amino-5-((3R,6S)-6-(carboxymethyl)-2-hydroxy-1,2-oxaborinan-3-ylamino)-5-oxopentanoic acid], the IC50 in assay [1] is more than 6.62 µM; in assay [2], more than 6.62 µM; in assay [3] (setting [7]), more than 6.62 µM; in assay [3] (setting [8]) it was more than 6.62 µM; in assay [4], more than 6.62 µM; in assay [5] it was less than 1.66 µM. Further, the IC50 in assay [6] was more than 6.62 µM.
Consider `O=C(O)C[C@@H]1CC[C@H](NC(=O)CCc2ccccc2)B(O)O1` [Compound 38, 2-((3R,6S)-2-hydroxy-3-(3-phenylpropanamido)-1,2-oxaborinan-6-yl)acetic acid], for which the IC50 was more than 6.55 µM in assay [1]; 1.64 to 6.55 µM in assay [2]; less than 1.64 µM in assay [3] (setting [7]); less than 1.64 µM in assay [3] (setting [8]); 1.64 to 6.55 µM in assay [4]; less than 1.64 µM in assay [5]. In assay [6], the IC50 is less than 1.64 µM.
Take `CSCCC(N)C(=O)N[C@H]1CC[C@@H](CC(=O)O)OB1O` (stereo partly drawn) [Compound 41, 2-((3R,6S)-3-(2-amino-4-(methylthio)butanamido)-2-hydroxy-1,2-oxaborinan-6-yl)acetic acid]: the concentration for half-maximal inhibition (IC50) in assay [1] was more than 6.58 µM; in assay [2], more than 6.58 µM; in assay [3] (setting [7]), less than 1.64 µM; in assay [3] (setting [8]) it was less than 1.64 µM; in assay [4], more than 6.58 µM; in assay [5] it was less than 1.64 µM. In addition, the IC50 in assay [6] was more than 6.58 µM.
Consider `NC(Cc1cccnc1)C(=O)N[C@H]1CC[C@@H](CC(=O)O)OB1O` (stereo partly drawn) [Compound 42, 2-((3R,6S)-3-(2-amino-3-(pyridin-3-yl)propanamido)-2-hydroxy-1,2-oxaborinan-6-yl)acetic acid], for which the IC50 in assay [1] was more than 6.23 µM; in assay [2] it was more than 6.23 µM; in assay [3] (setting [7]), less than 1.56 µM; in assay [3] (setting [8]), less than 1.56 µM; in assay [4] it was more than 6.23 µM; in assay [5], less than 1.56 µM. The IC50 in assay [6] is more than 6.23 µM.
On to `O=C(O)C[C@@H]1CC[C@H](NC(=O)Cc2cccnc2)B(O)O1` [Compound 43, 2-((3R,6S)-2-hydroxy-3-(2-(pyridin-3-yl)acetamido)-1,2-oxaborinan-6-yl)acetic acid], for which the IC50 was more than 6.85 µM in assay [1]; more than 6.85 µM in assay [2]; less than 1.71 µM in assay [3] (setting [7]); less than 1.71 µM in assay [3] (setting [8]); 1.71 to 6.85 µM in assay [4]; less than 1.71 µM in assay [5]. For the same compound, the IC50 in assay [6] lay within 1.71 to 6.85 µM.
On to `O=C(O)C[C@@H]1CC[C@H](NC(=O)[C@@H]2CCCCN2)B(O)O1` [Compound 45, 2-((3R,6S)-2-hydroxy-3-((S)-piperidine-2-carboxamido)-1,2-oxaborinan-6-yl)acetic acid], for which the IC50 is more than 7.04 µM in assay [1]; more than 7.04 µM in assay [2]; 1.76 to 7.04 µM in assay [3] (setting [7]); 1.76 to 7.04 µM in assay [3] (setting [8]); more than 7.04 µM in assay [4]; less than 1.76 µM in assay [5]. In assay [6], the concentration for half-maximal inhibition (IC50) is more than 7.04 µM.
